Data from paper PMC9629815, “MK256 is a novel CDK8 inhibitor with potent antitumor activity in AML through downregulation of the STAT pathway” (Oncotarget, 2022).

Columns and labels:
MOLM-14 xenograft model = assay: MOLM-14 xenograft efficacy study, combination with venetoclax; assay type: in vivo, NOD SCID mice; conditions: venetoclax 25 mg/kg alone, oral once a day, 5 days on/2 days off
Procedure: In an efficacy study of the combination of MK256 and venetoclax in the MOLM-14 tumor model, we compared venetoclax 25 mg/kg, venetoclax 25 mg/kg + MK256 10 mg/kg, and venetoclax 25 mg/kg + MK256 50 mg/kg. Compounds were given orally once a day on a 5 days on/2 days off schedule.
Female NOD SCID mice were purchased from Charles River Laboratories (Wilmington, USA) or bred at the animal facilities of the University of California San Francisco. All animal experiments were carried out under protocols approved by the Institutional Animal Care and Use Committee of the University of California San Francisco. For MOLM-14 model, 200 ul of 1 × 10^6 cells combined with matrigel (v/v, 1:1) were injected subcutaneously in the right flank of NODSCID mice. Tumors were allowed to grow for two weeks to reach a tumor volume about 200 mm^3 before mice were randomly grouped. The animals were treated for three weeks on a 5 days on/2 days off schedule by oral gavage with MK256 (dissolved in saline) alone or in combination with Venetoclax (dissolved in 5% DMSO + 50% PEG 300 + 5% Tween 80 + ddH2O). […] In the combination study, MK256 (10 or 50 mg/kg) and was coadministered with Venetoclax (25 mg/kg) once a day. Tumor volume and body weight were monitored once every 3 days. Tumor volume was calculated as L × W^2/2, where L and W were the length and width of the tumor, respectively.

MOLM-14 cells = assay: Cell viability dose-response matrix of MK256 and venetoclax; assay type: cell-based; conditions: Homo sapiens, MK256 0.0 nM, 72 hrs, read-out: percentage of cell viability
Text: Our earlier experiments showing the clearly increasing expression of BCL-2 in the MOLM-14 cell line led us to ask if there was any combinational effect between MK256 and a BCL-2 inhibitor in MOLM-14 cells. To address this question, we chose venetoclax (ABT-199), an FDA-approved BCL-2 inhibitor for AML and CLL, for the combination study. We treated MOLM-14 cells with MK256 and venetoclax at a series of concentration combinations, measured cell viability, and reported the data in a dose-response matrix (Figure 8). […] We also investigated the apoptotic effect of the combination treatment in the MOLM-14 cell line (Figure 10B).
Figure 10 (A) Dose-response matrix of percentage of cell viability of 10,000 MOLM-14 cells after 72 hrs treatment of MK256 and venetoclax at various concentration combinations. (B) Annexin V staining of 10,000 MOLM-14 cells after 72 hrs treatment of MK256 and venetoclax(ABT199) at various concentration combinations. Status of cells are labeled in the graph at the upper left corner. (C) Tumor growth of MOLM-14 xenograft model. Groups of control; ABT199 (25 mg/kg); ABT199 (25 mg/kg) + MK256 (10 mg/kg); ABT199 25 mg/kg + MK256 (50 mg/kg) were shown in straight line, dotted line, 3 dashed line and 2 dashed line, respectively. ^*** P < 0.001. (D) Body weight percentage of MOLM-14 tumor model. […]

CC1(C)CCC(CN2CCN(c3ccc(C(=O)NS(=O)(=O)c4ccc(NCC5CCOCC5)c([N+](=O)[O-])c4)c(Oc4cnc5[nH]ccc5c4)c3)CC2)=C(c2ccc(Cl)cc2)C1 [Venetoclax, venetoclax, reference compound]
tumor growth inhibition (MOLM-14 xenograft model): 15%
viability at 0.0002 µM (MOLM-14 cells; Venetoclax 0.2 nM): 65%
viability at 0.0014 µM (MOLM-14 cells; Venetoclax 1.4 nM): 45%
viability at 0.0041 µM (MOLM-14 cells; Venetoclax 4.1 nM): 26%
viability at 0.0123 µM (MOLM-14 cells; Venetoclax 12.3 nM): 12%
viability at 0.037 µM (MOLM-14 cells; Venetoclax 37 nM): 8%
viability at 0.1111 µM (MOLM-14 cells; Venetoclax 111.1 nM): 7%
viability at 0.3333 µM (MOLM-14 cells; Venetoclax 333.3 nM): 5%
viability at 1 µM (MOLM-14 cells; Venetoclax 1000 nM): 2%
viability at 3 µM (MOLM-14 cells; Venetoclax 3000 nM): 0%
